Data taken from PubChem BioAssay (NCI).
Values joined by “and” are separate entries in the source; they are usually repeats but may differ in a detail not shown here. Equal entries are not always repeated.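 Five compound concentrations were applied to cells in 96-well plates for 48 hours; endpoints were derived by simple linear interpolation of the resulting dose-response curve. GI50 marks 50% less growth. TGI denotes the concentration required for complete inhibition of growth.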

Key:
Assay in all cases: NCI tumour cell line growth inhibition, 48 h
HS 578T breast = system: HS 578T breast
MDA-MB-231 breast = system: MDA-MB-231 breast
SK-MEL-5 melanoma = system: SK-MEL-5 melanoma
SNB-19 CNS = system: SNB-19 CNS
OVCAR-8 ovarian = system: OVCAR-8 ovarian
RXF 393 renal = system: RXF 393 renal
TK-10 renal = system: TK-10 renal
SW-620 colon = system: SW-620 colon
CAKI-1 renal = system: CAKI-1 renal
SR leukemia = system: SR leukemia

Compound	GI50 (HS 578T breast)	TGI (HS 578T breast)	GI50 (MDA-MB-231 breast)	TGI (MDA-MB-231 breast)	GI50 (SK-MEL-5 melanoma)	TGI (SK-MEL-5 melanoma)	GI50 (SNB-19 CNS)	TGI (SNB-19 CNS)	GI50 (OVCAR-8 ovarian)	TGI (OVCAR-8 ovarian)	GI50 (RXF 393 renal)	TGI (RXF 393 renal)	GI50 (TK-10 renal)	TGI (TK-10 renal)	GI50 (SW-620 colon)	TGI (SW-620 colon)	GI50 (CAKI-1 renal)	TGI (CAKI-1 renal)	GI50 (SR leukemia)	TGI (SR leukemia)
COc1ccc(-c2nc(Nc3cc(C)[nH]n3)c3ccccc3n2)cc1	0.678 µM	4.6 µM	4.21 µM	> 100 µM	4.11 µM	22.7 µM	2.88 µM	> 100 µM	6.16 µM	99.8 µM	0.6 µM	2.67 µM	0.865 µM	8.11 µM	2.14 µM	> 100 µM	0.52 µM	> 64.1 µM	0.581 µM	25.4 µM
O=C(/C=C/c1ccccc1)CCN1CCOCC1		> 88.5 µM		35.1 µM		33.5 µM		39.9 µM		38.5 µM		26.1 µM		26.7 µM		16.5 µM		16.4 µM		53.3 µM
CN(C)CCCn1c(=O)c2ccccc2c2ccccc21	17.8 µM	49 µM	22.3 µM	62.7 µM	12.3 µM	24.9 µM	23.3 µM	> 100 µM	7.03 µM	> 100 µM	12.5 µM	26.7 µM	20.3 µM	> 100 µM	6.27 µM	53.3 µM	6.23 µM	34.9 µM	12.8 µM	> 100 µM
NC(CSC1c2ccccc2-c2ccccc21)C(=O)O (stereo not given)		> 100 µM		> 100 µM		> 100 µM		> 100 µM		> 100 µM		> 100 µM		> 100 µM		> 100 µM		> 100 µM		> 100 µM
O=C1CCC(N2Cc3cc(CNC(=O)C(F)(F)c4ccc(Cl)cc4)ccc3C2=O)C(=O)N1 (stereo not given)	1.71 µM	> 100 µM	0.0679 µM	> 100 µM	41.6 µM	> 100 µM	> 87.1 µM	> 100 µM	0.243 µM	> 100 µM	19 µM	> 100 µM	> 100 µM	> 100 µM	0.11 µM	> 100 µM	40.5 µM	> 100 µM	54.1 µM	> 100 µM
Nc1nc(OCc2ccccc2)c2[nH]cnc2n1	18.9 µM and 18.3 µM	49.5 µM and 57.5 µM	36.5 µM and 31.5 µM	163 µM	34.5 µM and 35.4 µM	193 µM and 149 µM	86.2 µM and 33 µM	400 µM and 213 µM	64.8 µM and 63 µM	400 µM and 492 µM	14.4 µM and 22.1 µM	94.5 µM and 169 µM and 145 µM	56.4 µM and 11.7 µM	183 µM and 104 µM	98.5 µM	400 µM and 289 µM	13.2 µM and 13.4 µM	44.2 µM and 72.4 µM and 43.5 µM	36.6 µM	
O=C(OCc1ccc2ccccc2n1)c1cn(C2CC2)c2cc(N3CCN(Cc4ccc5ccccc5n4)CC3)c(F)cc2c1=O	40.6 µM	> 100 µM	> 46.9 µM	> 84 µM	20.1 µM	62.2 µM	> 81.6 µM	> 100 µM	51.5 µM	> 100 µM	63.6 µM	> 100 µM	31.9 µM	> 74.6 µM	> 89.5 µM	> 100 µM	55.7 µM	> 100 µM	> 100 µM	> 100 µM
O=C1c2ccccc2-c2cc([N+](=O)[O-])c([N+](=O)[O-])cc21		> 100 µM		3.33 µM		3.94 µM		3.36 µM		3.57 µM		2.64 µM		2.81 µM		> 21.1 µM		6.17 µM		0.459 µM
CN1C(=O)N(C)C2C1NN=c1s/c(=C\c3ccc(C(F)(F)F)cc3)c(=O)n12 (stereo not given)	2.13 µM	81.9 µM	2.29 µM	14 µM	0.594 µM	13.9 µM	2.62 µM	> 100 µM	2.71 µM	55.7 µM	1.73 µM	6.77 µM	4.06 µM	75.9 µM	0.659 µM	> 100 µM	3.39 µM	> 100 µM	0.329 µM	> 100 µM
CN[C@@H](C)C(=O)N[C@H](C(=O)N1CCC[C@H]1C(=O)Nc1sc(-c2ncco2)nc1-c1ccccc1)C1CCCCC1	50 µM	> 100 µM	0.425 µM	17.2 µM	9.93 µM	24 µM	30 µM	98.7 µM	17.2 µM	42.7 µM	8.51 µM	32.3 µM	57.5 µM	> 100 µM	78.4 µM	> 100 µM	51.8 µM	> 100 µM	14 µM	54.7 µM
C/C(=C\c1ccc2ccccc2c1)[N+](=O)[O-]	2.54 µM	9.26 µM	2.02 µM	3.92 µM	1.79 µM	3.87 µM	6.15 µM	19.7 µM	1.73 µM	3.17 µM	1.65 µM	3.06 µM			1.78 µM	3.54 µM	1.92 µM	4.05 µM	0.409 µM	2.56 µM
O=C(/C=C/c1cc2ccccc2[nH]c1=O)/C=C/c1cc2ccccc2[nH]c1=O	> 39.9 µM	> 100 µM	15.4 µM	> 100 µM	23.5 µM	> 100 µM	21.1 µM	> 100 µM	9.84 µM	> 72.8 µM	6.88 µM	10.8 µM	11.6 µM	> 60.7 µM	6.34 µM	14.8 µM	15.2 µM	> 100 µM	6.42 µM	> 100 µM
O=C1NC(=O)C(N2C(=O)c3ccccc3C2=O)CC1O (stereo not given)	> 100 µM	> 100 µM	> 100 µM	> 100 µM			> 100 µM	> 100 µM	> 100 µM	> 100 µM	> 100 µM	> 100 µM	> 100 µM	> 100 µM	> 100 µM	> 100 µM	> 100 µM	> 100 µM	> 100 µM	> 100 µM
